Test results reported in patent publication US7588894B2, “Use of ID4 for diagnosis and treatment of cancer” (John Wayne Cancern Institute, priority 2005, dated 2009).
“Also recorded” adds a separate entry of the source.

How the values were obtained:
Assay type in all cases: cell-based
[1] = tested on: ID4 mRNA expression in SW480; test: ID4 mRNA expression by quantitative real-time reverse transcription-PCR after 5Aza treatment, SW480
Procedure: (§1) Cell Lines. Three CRC cell lines SW480, DLD1, and LOVO (American Type Culture Collection, Manassas, Va.) were analyzed in this study. Genomic DNA was extracted from cells as described previously (33). Total RNA was extracted with TRI Reagent (Molecular Research Center, Inc., Cincinnati, Ohio) according to the manufacturer's protocol. For ID4 expression restoration study, SW480 and DLD1 were treated with DNA demethylation agent 5-aza-cytidine (5Aza), a known inhibitor of methylation, as described previously (33-35). Cells were seeded at 7×10^5/T-25 flask on day zero; the culture medium was changed on day two, and cells were then treated with 5Aza at final concentrations of 5 ug/mL for 48 hours (SW480 and DLD1) and 10 ug/mL for 72 hours (DLD1). After treatment, cells were harvested for DNA and RNA as described above.
(§2) Analysis of mRNA Expression Level. Reverse-transcriptase reactions were done on 1.0 ug of extracted total RNA with Moloney murine leukemia virus reverse-transcriptase (Promega, Madison, Wis.) with oligodeoxythymidylic acid primers, as described previously (39). Quantitative real-time reverse transcription-PCR assay was done on the iCycler iQ Real-Time thermocycler detection system (Bio-Rad Laboratories, Hercules, Calif.; 39). For each PCR, the reaction mixture consisted of cDNA template synthesized by reverse-transcription from 250 ng of total RNA, 0.2 mmol/L of forward primer (5′-CGCTCACTGCGCTCAACAC-3′), 0.2 mmol/L of reverse primer (5′-TCAGGCGGCCGCACACCT-3′), and 0.6 mmol/L of fluorescence resonance energy transfer probe (5′-FAM-[…]-BHQ-3′). […] Absolute copy numbers were determined by a standard curve with serial dilutions (10^8 to 10^1 copies) of DNA containing ID4 or GAPDH cDNA sequence. […] The expression level of the housekeeping gene GAPDH was measured as an internal reference with a standard curve to determine the integrity of template RNA for all of the specimens. The ratio of ID4 and GAPDH mRNA level was calculated as follows: (absolute copy number of ID4)/(absolute copy number of GAPDH) as described previously (39).

[2] = tested on: ID4 mRNA expression in DLD1; test: ID4 mRNA expression by quantitative real-time reverse transcription-PCR after 5Aza treatment, DLD1
Procedure: as §1
Analysis of mRNA Expression Level. Reverse-transcriptase reactions were done on 1.0 ug of extracted total RNA with Moloney murine leukemia virus reverse-transcriptase (Promega, Madison, Wis.) with oligodeoxythymidylic acid primers, as described previously (39). Quantitative real-time reverse transcription-PCR assay was done on the iCycler iQ Real-Time thermocycler detection system (Bio-Rad Laboratories, Hercules, Calif.; 39). For each PCR, the reaction mixture consisted of cDNA template synthesized by reverse-transcription from 250 ng of total RNA, 0.2 mmol/L of forward primer (5′-CGCTCACTGCGCTCAACAC-3′), 0.2 mmol/L of reverse primer (5′-TCAGGCGGCCGCACACCT-3′), and 0.6 mmol/L of fluorescence resonance energy transfer probe (5′-FAM-[…]-BHQ-3′). PCR amplification was done in a 20-ul reaction volume for 45 cycles of 30 seconds at 94° C., 30 seconds at 58° C., and 30 seconds at 72° C. with 3 mmol/L of Mg^2+. Absolute copy numbers were determined by a standard curve with serial dilutions (10^8 to 10^1 copies) of DNA containing ID4 or GAPDH cDNA sequence. Analysis without templates was done as a negative control in each study. PCR products were electrophoresed on 2% agarose gels to confirm correct product size and absence of nonspecific bands. The expression level of the housekeeping gene GAPDH was measured as an internal reference with a standard curve to determine the integrity of template RNA for all of the specimens. The ratio of ID4 and GAPDH mRNA level was calculated as follows: (absolute copy number of ID4)/(absolute copy number of GAPDH) as described previously (39).

[3] = tested on: ID4 promoter region in SW480; test: Methylation-specific PCR of ID4 promoter region after 5Aza treatment, SW480; details: SW480, 5 ug/mL of 5Aza for 48 hours; untreated only methylated peaks
Procedure: (§3) Cell Lines. Three CRC cell lines SW480, DLD1, and LOVO (American Type Culture Collection, Manassas, Va.) were analyzed in this study. Genomic DNA was extracted from cells as described previously (33). Total RNA was extracted with TRI Reagent (Molecular Research Center, Inc., Cincinnati, Ohio) according to the manufacturer's protocol. […] Cells were seeded at 7×10^5/T-25 flask on day zero; the culture medium was changed on day two, and cells were then treated with 5Aza at final concentrations of 5 ug/mL for 48 hours (SW480 and DLD1) and 10 ug/mL for 72 hours (DLD1). After treatment, cells were harvested for DNA and RNA as described above. Sodium bisulfite modification was applied on extracted genomic DNA of tissue specimens or cell lines for methylation-specific PCR or bisulfite sequencing as described previously (33). Detection of Hypermethylation. Methylation status of ID4 promoter region was analyzed by methylation-specific PCR and bisulfite sequencing. […] PCR products were detected and analyzed by CEQ 8000XL capillary array electrophoresis system (Beckman Coulter, Inc., Fullerton, Calif.) with CEQ 8000 software version 6.0 (Beckman Coulter) as described previously (35). Methylation status was determined by the ratio of the signal intensities of methylated and unmethylated PCR products; samples with methylated to unmethylated ratio larger than 0.2 were determined as methylated.

[4] = tested on: ID4 promoter region in DLD1; test: Methylation-specific PCR of ID4 promoter region after 5Aza treatment, DLD1; details: DLD1, 10 ug/mL of 5Aza for 72 hours; untreated only methylated peaks
Procedure: as §3

[5] = tested on: ID4 promoter region in SW480; test: Bisulfite sequencing of ID4 promoter region after 5Aza treatment, SW480; details: SW480, 5 ug/mL of 5Aza for 48 hours; nontreated cells all CpG sites methylated
Procedure: as §1
(§4) Sodium bisulfite modification was applied on extracted genomic DNA of tissue specimens or cell lines for methylation-specific PCR or bisulfite sequencing as described previously (33).
(§5) For bisulfite sequencing, the primer set was as follows: forward, 5′-[…]-3′; and reverse, 5′-[…]-3′, with Y═C or T, R=G or A, as described previously (32). […] Sequences were read by CEQ 8000XL capillary array electrophoresis system (Beckman Coulter) with CEQ 8000 software version 6.0 (Beckman Coulter) as described previously (37).

[6] = tested on: ID4 promoter region in DLD1; test: Bisulfite sequencing of ID4 promoter region after 5Aza treatment, DLD1; details: DLD1, 10 ug/mL of 5Aza for 72 hours
Procedure: as §1, §4, §5

[7] = tested on: CRC cell lines; test: mRNA expression in CRC cell lines after 5Aza treatment (summary statements)
Procedure: Cell Lines. Three CRC cell lines SW480, DLD1, and LOVO (American Type Culture Collection, Manassas, Va.) were analyzed in this study. Genomic DNA was extracted from cells as described previously (33). Total RNA was extracted with TRI Reagent (Molecular Research Center, Inc., Cincinnati, Ohio) according to the manufacturer's protocol. For ID4 expression restoration study, SW480 and DLD1 were treated with DNA demethylation agent 5-aza-cytidine (5Aza), a known inhibitor of methylation, as described previously (33-35). […]
as §2, with “Reverse-transcriptase reactions were done on 1.0 ug of extracted total RNA with Moloney murine leukemia virus reverse-transcriptase (Promega, Madison, Wis.) with oligodeoxythymidylic acid primers, as described previously (39).” left out, “The ratio of ID4 and GAPDH mRNA level was calculated as follows: (absolute copy number of ID4)/(absolute copy number of GAPDH) as described previously (39).” left out

`Nc1ncn([C@@H]2O[C@H](CO)[C@@H](O)[C@H]2O)c(=O)n1` [5Aza, 5-aza-cytidine] was tested, and the ID4 copy number ([1]; SW480, 5 ug/mL of 5Aza for 48 hours, untreated undetectable (0)) was 4.7×10^2 copies/250 ng of total RNA, the “ID4 expression ratio (ID4 copy number)/(GAPDH copy number)” value ([1]; SW480, 5Aza-treated, untreated 0) was 2.8 × 10^−3 and the GAPDH copy number ([1]; SW480, 5Aza-treated, untreated 4.6 × 10^6) was 1.7 × 10^5 copies/250 ng of total RNA. For the same compound, the ID4 expression restoration ([2]; DLD1, 5 ug/mL of 5Aza for 48 hours) was “did not overtly restore ID4 expression”, the ID4 copy number ([2]; DLD1, 10 ug/mL of 5Aza for 72 hours, untreated undetectable (0)) was 4.8×10^2 copies/250 ng of total RNA and the “ID4 expression ratio (ID4 copy number)/(GAPDH copy number)” value ([2]; DLD1, 5Aza-treated, untreated 0) was 4.8 × 10^−3. The GAPDH copy number ([2]; DLD1, 5Aza-treated, untreated 5.6 × 10^5) was 9.9 × 10^4 copies/250 ng of total RNA, the “Methylation-specific PCR result of ID4 promoter” value [3] was “Unmethylated peaks appeared; also recorded: showed an unmethylation-specific peak” and the “Methylation-specific PCR result of ID4 promoter” value [4] was “Unmethylated peaks appeared; also recorded: produced an unmethylation-specific peak”. The “Methylation status of CpG sites by bisulfite sequencing” value [5] was “most CpG sites were changed to unmethylated form”, the “Methylation status of CpG sites by bisulfite sequencing” value [6] was “CpG sites partially lost their methylation” and the “ID4 mRNA expression in hypermethylated CRC cell lines” value ([7]; 5-aza-cytidine treatment) was “could be restored”. The “GAPDH mRNA” value ([7]; after 5Aza treatment, CRC cell lines) was “decreased”.
